Results on 23 molecules are retold here after paper PMC7871173 (Journal of medicinal chemistry, 2019).

“Also recorded” adds a separate entry of the source.

Data set [1] addresses T1, CB1 receptor (Homo sapiens, UniProt P21554). Format: cell-based. The conditions noted are these: for CB1 PAM activity (in words): enhancement of CP 55,940-induced β-arrestin recruitment; for enhancement of CP 55,940-induced β-arrestin recruitment: at 300 nM.
Data set [2] addresses T1, CB1 receptor. Format: binding. The conditions noted are these: 1 μM compound; for % enhancement of [3H]CP 55,940 binding: three independent experiments.
The target of data set [3] is T2, CB1 receptor (Mus musculus, UniProt P47746). The conditions noted are these: for activity in the tetrad or psychoactive effects: see Supporting Information.
T2 sequence (P47746 whole entry): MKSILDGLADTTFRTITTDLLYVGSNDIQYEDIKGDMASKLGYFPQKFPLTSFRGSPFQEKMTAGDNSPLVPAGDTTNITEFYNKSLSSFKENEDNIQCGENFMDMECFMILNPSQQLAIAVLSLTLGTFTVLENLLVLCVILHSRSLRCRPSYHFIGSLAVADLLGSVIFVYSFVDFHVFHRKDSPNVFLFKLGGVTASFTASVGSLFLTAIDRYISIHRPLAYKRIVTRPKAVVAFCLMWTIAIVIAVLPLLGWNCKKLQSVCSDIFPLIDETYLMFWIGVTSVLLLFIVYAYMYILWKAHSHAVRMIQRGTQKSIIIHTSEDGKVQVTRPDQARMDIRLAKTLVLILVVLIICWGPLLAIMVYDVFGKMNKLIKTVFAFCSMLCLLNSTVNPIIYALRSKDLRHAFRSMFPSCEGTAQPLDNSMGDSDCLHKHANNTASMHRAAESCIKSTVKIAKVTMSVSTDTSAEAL
Data set [4] in a line: Mouse liver microsomal stability. Format: in vitro ADME. The conditions noted are these: mouse liver microsomes. In general terms: Liver microsomes are a subcellular fraction often used to study metabolism.
The nature of another data set: in vitro. The conditions noted are these: rat, rat liver microsomes.
For data set [5], the system named is mouse chronic constrictive injury of the sciatic nerve (CCI) model of neuropathic pain. The conditions noted are these: 40 mg/kg; cited from earlier work.
In data set [6] the target is T1, CB1 receptor. Type of data set: cell-based. The conditions noted are these: compound alone; relative to maximum achievable with CP 55,940.
Data set [7] has as its target T1, CB1 receptor. Nature of the data set: cell-based. The conditions noted are these: read-out: Emax PAM, maximum EC20 CP 55,940-induced β-arrestin recruitment relative to maximum achievable with CP 55,940. On the technique in general: Activated receptors often draw arrestin, which recruitment assays turn into a signal.
Data set [8] deals with T2, CB1 receptor. Nature of the data set: Augmentation of CP 55,940 antinociception in the tail withdrawal test. Type of data set: in vivo. The conditions noted are these: 40 mg/kg.
For data set [9] the following is noted: compared to nearest nitro analogue.

T1 sequence (P21554 whole entry): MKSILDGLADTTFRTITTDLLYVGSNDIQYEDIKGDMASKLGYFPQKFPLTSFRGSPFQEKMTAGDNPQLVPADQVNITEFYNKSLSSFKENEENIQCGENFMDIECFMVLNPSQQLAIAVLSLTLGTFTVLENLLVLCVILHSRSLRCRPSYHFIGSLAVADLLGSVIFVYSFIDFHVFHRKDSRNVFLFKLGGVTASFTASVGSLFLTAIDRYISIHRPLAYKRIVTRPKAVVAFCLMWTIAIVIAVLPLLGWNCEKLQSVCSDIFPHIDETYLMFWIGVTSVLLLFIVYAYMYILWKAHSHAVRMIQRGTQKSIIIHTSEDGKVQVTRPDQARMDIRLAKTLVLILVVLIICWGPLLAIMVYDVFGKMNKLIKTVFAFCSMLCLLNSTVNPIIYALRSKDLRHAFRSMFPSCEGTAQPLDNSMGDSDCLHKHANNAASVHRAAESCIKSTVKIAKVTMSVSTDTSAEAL

Consider `N#Cc1ccc2c(C(C[N+](=O)[O-])c3cccs3)c(-c3ccccc3)[nH]c2c1` (racemic) [(±)-8], for which, at CB1 receptor [1], the “CB1 PAM activity (in words)” value was “moderately potent and efficacious CB1 PAMs”.

For the molecule `N#Cc1ccc2[nH]c(-c3ccccc3)c(C(C[N+](=O)[O-])c3cccs3)c2c1` (stereo not shown) [Compound 3], the “CB1 PAM activity (in words)” value at CB1 receptor [1] is “poor potency”. For `Cc1ccc2c(C(C(=O)C(F)(F)F)c3ccccc3)c(-c3ccccc3)[nH]c2c1` (stereo not shown) [Compound 38], the “enhancement of CP 55,940-induced β-arrestin recruitment” value at CB1 receptor [1] is on record as 50–100%. As to `Cc1ccc2c(C(C[N+](=O)[O-])c3cccs3)c(-c3ccccc3)[nH]c2c1` (stereo not shown) [Compound 5, reference compound], at CB1 receptor [2], the “enhancement in binding of [3H]CP 55,940 (in words)” value (“enhancement in binding” for short) is reported as “significant enhancement”. For the same molecule, at CB1 receptor [3], the “activity in the tetrad or psychoactive effects” value is listed as “neither ZCZ011 or (±)-1 showed any activity in the tetrad or psychoactive effects”. For the same molecule, the half-life (in data set [4]; in the data set “in vitro”) was at most 10 min each time. The “CB1 PAM activity (in words)” value at CB1 receptor [1] was “moderately potent and efficacious CB1 PAMs”. In addition, the anti-allodynic effects result in data set [5] is “produces anti-allodynic effects”. As to `Cc1ccc2c(C(c3ccccc3)C(C#N)C#N)c(-c3ccccc3)[nH]c2c1` (stereo not shown) [Compound 32], the “CB1 PAM activity (in words)” value at CB1 receptor [1] is listed as “modest”. For the molecule `Cc1ccc2c(C(CC#N)c3ccccc3)c(-c3ccccc3)[nH]c2c1` (stereo not shown) [Compound 30], on CB1 receptor [1], the “CB1 PAM activity (in words)” value is “modest”. On the same count and under the same terms, the value for `CC(=O)Nc1ccc2c(C(CC(F)(F)F)c3cccs3)c(-c3ccccc3)[nH]c2c1` (stereo not shown) [Compound 53, N-(2-Phenyl-3-(3,3,3-trifluoro-1-(thiophen-2-yl)propyl)-1H-indol-6-yl)acetamide] was “none of 6-CO2H (51), 6-CH2OH (52), 6-NHAc (53), 6-NH2 (55), or 6-NHSO2Me (56) gave active compounds”; that for `O=[N+]([O-])CC(c1cccs1)c1c(-c2ccccc2)[nH]c2cc(C(F)(F)F)ccc12` (stereo not shown) [Compound 7] was “moderately potent and efficacious CB1 PAMs”.

Turning to `Cc1ccc2[nH]c(-c3ccccc3)c(C(C[N+](=O)[O-])c3cccs3)c2c1` (stereo not shown) [Compound 2], at CB1 receptor [1], the “CB1 PAM activity (in words)” value is recorded as “poor potency”. Still for that read-out and setting: the value for `CC(=O)c1ccc2c(C(CC(F)(F)F)c3cccs3)c(-c3ccccc3)[nH]c2c1` (stereo not shown) [Compound 54, 1-(2-Phenyl-3-(3,3,3-trifluoro-1-(thiophen-2-yl)propyl)-1H-indol-6-yl)ethan-1-one] was “potent and efficacious”; that for `O=C(O)c1ccc2c(C(CC(F)(F)F)c3cccs3)c(-c3ccccc3)[nH]c2c1` (stereo not shown) [Compound 51] was “none of 6-CO2H (51), 6-CH2OH (52), 6-NHAc (53), 6-NH2 (55), or 6-NHSO2Me (56) gave active compounds; also recorded: inactive”. Turning to `N#Cc1ccc2c(C(C[N+](=O)[O-])c3cccs3)c(-c3ccccc3)[nH]c2c1` (single isomer, unassigned; (+)) [(+)-8], the “enhancement in binding” value on CB1 receptor [2] is recorded as “no enhancement”. Besides, the “Emax Ago” value at CB1 receptor [6] was 6%. Moreover, on CB1 receptor [1], the “CB1 PAM activity (in words)” value is “effectively pure PAMs”. `N#Cc1ccc2c(C(CC(F)(F)F)c3cccs3)c(-c3ccccc3)[nH]c2c1` (racemic) [(±)-1, 2-Phenyl-3-(3,3,3-trifluoro-1-(thiophen-2-yl)propyl)-1H-indole-6-carbonitrile]: the Emax at CB1 receptor [7] stood at 100 ± 25%. At CB1 receptor [3] (40 mg/kg, administered alone), the “antinociception in the tail withdrawal test” value was “did not produce antinociception”; the hypothermia result is on record as “did not produce hypothermia”; the “immobility in the catalepsy bar test” value was “did not produce hypothermia or cause immobility in the catalepsy bar test”; the “locomotor behavior (distance traveled, immobility time)” value is reported as “did not affect either the distance traveled or immobility time”. Besides, at CB1 receptor [3] (40 mg/kg, administered alone), the “pharmacological effects in the tetrad assay” value is reported as “did not elicit pharmacological effects”. Also, on CB1 receptor [3], the “activity in the tetrad or psychoactive effects” value is “neither ZCZ011 or (±)-1 showed any activity in the tetrad or psychoactive effects”. Also, on CB1 receptor [8], the “shift of dose–response relationship of CP 55,940 in producing antinociception” value was “significant leftward shifts”. Take `O=[N+]([O-])CC(c1cccs1)c1c(-c2ccccc2)[nH]c2ccc([N+](=O)[O-])cc12` (stereo not shown) [Compound 4]: the “CB1 PAM activity (in words)” value on CB1 receptor [1] is recorded as “poor potency”. Same read-out and setting: the value for `O=[N+]([O-])CC(c1cccs1)c1c(-c2ccccc2)[nH]c2cc(Cl)ccc12` (stereo not shown) [Compound 6] was “moderately potent and efficacious CB1 PAMs”. For the molecule `N#CCC(c1ccccc1)c1c(-c2ccccc2)[nH]c2cc(Cl)ccc12` (stereo not shown) [Compound 31], the “metabolic stability in rat liver microsomes (in words)” value in data set [9] was “similarly poor metabolic stability”. At CB1 receptor [1], the “CB1 PAM activity (in words)” value was “somewhat reduced potency and efficacy”. Consider `N#Cc1ccc2c([C@H](CC(F)(F)F)c3cccs3)c(-c3ccccc3)[nH]c2c1` [(S)-(+)-1], for which, at CB1 receptor [2], the “enhancement in binding” value is reported as “significant enhancement” and the “% enhancement of [3H]CP 55,940 binding” value came out at 144.4 ± 3.5%. Also, on CB1 receptor [7], the Emax turned out to be 79 ± 32%. For `CS(=O)(=O)Nc1ccc2c(C(CC(F)(F)F)c3cccs3)c(-c3ccccc3)[nH]c2c1` (stereo not shown) [Compound 56, N-(2-Phenyl-3-(3,3,3-trifluoro-1-(thiophen-2-yl)propyl)-1H-indol-6-yl)methanesulfonamide], the “CB1 PAM activity (in words)” value on CB1 receptor [1] is listed as “none of 6-CO2H (51), 6-CH2OH (52), 6-NHAc (53), 6-NH2 (55), or 6-NHSO2Me (56) gave active compounds”. `N#Cc1ccc2c(C(C[N+](=O)[O-])c3cccs3)c(-c3ccccc3)[nH]c2c1` (single isomer, unassigned; (-)) [(−)-8]: the “enhancement in binding” value on CB1 receptor [2] is “no enhancement”. Further, the “CB1 PAM activity (in words)” value at CB1 receptor [1] was “effectively pure PAMs”. As for `Cc1ccc2c(C(CC(F)(F)F)c3ccccc3)c(-c3ccccc3)[nH]c2c1` (stereo not shown) [Compound 39], the “enhancement of CP 55,940-induced β-arrestin recruitment” value on CB1 receptor [1] was 50–100%. For the molecule `OCc1ccc2c(C(CC(F)(F)F)c3cccs3)c(-c3ccccc3)[nH]c2c1` (stereo not shown) [Compound 52, (2-Phenyl-3-(3,3,3-trifluoro-1-(thiophen-2-yl)propyl)-1H-indol-6-yl)methanol], the “CB1 PAM activity (in words)” value on CB1 receptor [1] is “none of 6-CO2H (51), 6-CH2OH (52), 6-NHAc (53), 6-NH2 (55), or 6-NHSO2Me (56) gave active compounds”. `N#Cc1ccc2c([C@@H](CC(F)(F)F)c3cccs3)c(-c3ccccc3)[nH]c2c1` [(R)-(−)-1]: at CB1 receptor [2], the “enhancement in binding” value is on record as “significant enhancement” and the “% enhancement of [3H]CP 55,940 binding” value is given as 131.4 ± 4.3%. The Emax on CB1 receptor [7] stood at 125 ± 29%. Turning to `Nc1ccc2c(C(CC(F)(F)F)c3cccs3)c(-c3ccccc3)[nH]c2c1` (stereo not shown) [Compound 55, 2-Phenyl-3-(3,3,3-trifluoro-1-(thiophen-2-yl)propyl)-1H-indol-6-amine], the “CB1 PAM activity (in words)” value at CB1 receptor [1] is given as “none of 6-CO2H (51), 6-CH2OH (52), 6-NHAc (53), 6-NH2 (55), or 6-NHSO2Me (56) gave active compounds”.

By half-life is commonly meant the time in which the quantity being followed falls by half. In general, Emax refers to the greatest response seen or fitted, relative to the assay's reference.
